Test results from PubChem BioAssay AID1963861 (Molecular Pharmacology Branch, DTP, NCI, 2024).

System: 885724-159-R-J1-PDC KRAS PDC multicell spheroid viability
Test: Anticancer human tumor 885724-159-R-J1-PDC patient-derived pancreatic adenocarcinoma cell line growth inhibition [KRAS2]
Details: for IC50: curve of first compound; for viability, T/C: stronger effect = lower value
Source text: Multicellular complex tumor spheroid response to RAS pathway inhibitors in combination with a targeted agents in patient-derived cell lines with oncogenic KRAS variants from multiple cancer types
A high-throughput screen of multi-cell type tumor spheroids was designed to identify active combinations of targeted small molecules and KRAS pathway inhibitors. Complex spheroids include a stromal component modeled by human endothelial cells (HUVEC) and fibroblasts modeled by human mesenchymal stem cells (MSCs). The concentration ranges selected for each drug and investigational agent were based upon clinically achievable concentrations if the clinical Cmax of the agent was known.
Compounds. The drugs and investigational agents: BI-3406 (NSC825286), BAY-293 (NSC824723), batoprotafib (TNO155; NSC825523), sotorasib (AMG 510; NSC818433), MRTX1257 (NSC819558), elimusertib (BAY 1895344; NSC800525), molibresib (GSK525762; NSC774829), temuterkib (LY3214996; NSC803410), venetoclax (NSC766270), alisertib (NSC759677), olaparib (NSC753686), talazoparib (NSC767125), erdafitinib (NSC781556), ipatasertib (NSC767898), cabozantinib (NSC761068), nintedanib (NSC756659), abemaciclib (NSC768073), docetaxel (NSC628503), trametinib (NSC758246), and sapanisertib (NSC764658) were obtained from the National Cancer Institute (NCI) Developmental Therapeutics Program Chemical Repository. The FDA-approved anticancer drug set is available from the Developmental Therapeutics Program. […] The stock solutions were prepared in dimethyl sulfoxide (DMSO, Sigma-Aldrich, St. Louis, MO, cat. D2650) at 800-fold the tested concentration and stored at -70 degrees C prior to their use. All drugs and investigational agents were tested over a range starting from a high concentration at or near the clinical Cmax and decreasing in half-log increments. If the clinical Cmax for an agent had not been determined, the highest concentration tested was 10 microM.
Cell Culture. All cells were maintained in an incubator at 37 degrees C and 5% CO2 with 95% humidity. The PDC lines were cultured according to standard operating procedures established by the NCI PDMR (https://pdmr.cancer.gov/sops/default.htm). Briefly, all PDCs were thawed and cultured in Matrigel-coated flasks prepared with a working solution of 1X Ham's F-12 nutrient mix, without supplementation (Invitrogen, Waltham, MA, cat. 11765054), 100 U/mL penicillin-streptomycin (Invitrogen, cat. 15140122), and 2.5% Matrigel (Corning Inc., Corning, NY, cat. 354248) for the first three passages. All PDCs were cultured in complete DMEM/F-12 media containing advanced DMEM/F-12 (Invitrogen, cat. 12634028), 4.9% defined fetal bovine serum, heat inactivated (HyClone Laboratories Inc., Logan, UT, cat. SH30070.03HI), 389 ng/mL hydrocortisone (Sigma-Aldrich, cat. H4001), 9.7 ng/mL human EGF recombinant protein (Invitrogen, cat. PHG0313), 23.4 microg/mL adenine (Sigma-Aldrich, cat. A2786), 97.3 U/mL penicillin-streptomycin (Invitrogen, cat. 15140122), 1.9 mM L-glutamine (Invitrogen, cat. 25030081), and 9.7 microM Y-27632 dihydrochloride (Tocris Bioscience, Bristol, United Kingdom, cat. 1254). The PDCs were cultured in complete DMEM/F12 media without 9.7 microM Y-27632 dihydrochloride for at least two passages prior to the screen. The established cell line HOP-62 was cultured in RPMI 1640 medium, HEPES (Invitrogen, cat. 22400105) with 10% defined fetal bovine serum (HyClone Laboratories Inc., cat. SH30070.03) and 2 mM L-glutamine (Invitrogen, cat. 25030081). The pooled donor HUVEC were cultured in endothelial cell growth medium 2 (PromoCell, Heidelberg, Germany, cat. C-22011) and the hMSC were cultured in mesenchymal stem cell growth medium 2 (PromoCell, cat. C-28009). For all experiments, HUVEC and hMSC were used at passages </=5, while the malignant cell lines were used at passages </=15. […]

[1] = second compound 0.1 µM, first compound 0.00316 µM
[2] = second compound 0.1 µM, first compound 0.01 µM
[3] = second compound 0.1 µM, first compound 0.0316 µM
[4] = second compound 0.1 µM, first compound 0.1 µM
[5] = second compound 0.1 µM, first compound 0.316 µM
[6] = second compound 0.1 µM, first compound 1 µM
[7] = second compound 0.316 µM, first compound 0.00316 µM
[8] = second compound 0.316 µM, first compound 0.01 µM
[9] = second compound 0.316 µM, first compound 0.0316 µM
[10] = second compound 0.316 µM, first compound 0.1 µM
[11] = second compound 0.316 µM, first compound 0.316 µM
[12] = second compound 0.316 µM, first compound 1 µM
[13] = second compound 1 µM, first compound 0.00316 µM
[14] = second compound 1 µM, first compound 0.01 µM
[15] = second compound 1 µM, first compound 0.0316 µM
[16] = second compound 1 µM, first compound 0.1 µM
[17] = second compound 1 µM, first compound 0.316 µM
[18] = second compound 1 µM, first compound 1 µM
[19] = second compound 3.16 µM, first compound 0.00316 µM
[20] = second compound 3.16 µM, first compound 0.01 µM
[21] = second compound 3.16 µM, first compound 0.0316 µM
[22] = second compound 3.16 µM, first compound 0.1 µM
[23] = second compound 3.16 µM, first compound 0.316 µM
[24] = second compound 3.16 µM, first compound 1 µM
[25] = second compound 10 µM, first compound 0.00316 µM
[26] = second compound 10 µM, first compound 0.01 µM
[27] = second compound 10 µM, first compound 0.0316 µM
[28] = second compound 10 µM, first compound 0.1 µM
[29] = second compound 10 µM, first compound 0.316 µM
[30] = second compound 10 µM, first compound 1 µM
[31] = second compound 0.1 µM, first compound 3.16 µM
[32] = second compound 0.316 µM, first compound 3.16 µM
[33] = second compound 1 µM, first compound 3.16 µM
[34] = second compound 3.16 µM, first compound 3.16 µM
[35] = second compound 10 µM, first compound 3.16 µM
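Note: spheroids exposed to agents for 7 days before readout.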

Compound | IC50 (second compound 0.1 µM) [nM] | IC50 (second compound 0.316 µM) [nM] | IC50 (second compound 1 µM) [nM] | IC50 (second compound 3.16 µM) [nM] | IC50 (second compound 10 µM) [nM] | viability, T/C [2] [%] | viability, T/C [3] [%] | viability, T/C [4] [%] | viability, T/C [5] [%] | viability, T/C [6] [%] | viability, T/C [8] [%] | viability, T/C [9] [%] | viability, T/C [10] [%] | viability, T/C [11] [%] | viability, T/C [15] [%] | viability, T/C [16] [%] | viability, T/C [21] [%] | viability, T/C [22] [%] | viability, T/C [27] [%] | viability, T/C [28] [%] | other results
CCN1CCN(Cc2ccc(Nc3ncc(F)c(-c4cc(F)c5nc(C)n(C(C)C)c5c4)n3)nc2)CC1 + COc1cc2nc(C)nc(NC(C)c3cc(N)cc(C(F)(F)F)c3)c2cc1OC1CCOC1 | > 1000 | > 1000 | > 1000 | > 1000 | < 3.16 | 89.7 | 84.2 | 80.7 | 80.7 | 86.1 | 86.2 | 79.9 | 79 | 75.2 | 78.6 | 73.2 | 76 | 63 | 28.3 | 36.6 | viability, T/C [1]: 88.8%; viability, T/C [7]: 96.3%; viability, T/C [12]: 76.6%; viability, T/C [13]: 90%; viability, T/C [14]: 86.9%; viability, T/C [17]: 72.4%; viability, T/C [18]: 80.8%; viability, T/C [19]: 80.3%; viability, T/C [20]: 91.6%; viability, T/C [23]: 71.5%; viability, T/C [24]: 73.1%; viability, T/C [25]: 38.2%; viability, T/C [26]: 35.9%; viability, T/C [29]: 17.6%; viability, T/C [30]: 7.18%
CC1COCCN1c1cc(-c2ccnn2C)c2ccnc(-c3ccn[nH]3)c2n1 (stereo not given) + COc1cc2nc(C)nc(NC(C)c3cc(N)cc(C(F)(F)F)c3)c2cc1OC1CCOC1 | 2720 | > 3160 | > 3160 | > 3160 | < 10 | 99.4 | 91.6 | 71.5 | 62.5 | 49.1 | 101 | 94.3 | 70 | 63 | 88.4 | 73.5 | 89.2 | 71.3 | 51.7 | 49.4 | viability, T/C [31]: 50.9%; viability, T/C [12]: 52%; viability, T/C [32]: 53.9%; viability, T/C [14]: 111%; viability, T/C [17]: 60.6%; viability, T/C [18]: 56%; viability, T/C [33]: 58.4%; viability, T/C [20]: 97.3%; viability, T/C [23]: 61.9%; viability, T/C [24]: 59.2%; viability, T/C [34]: 52.9%; viability, T/C [26]: 46%; viability, T/C [29]: 34.2%; viability, T/C [30]: 41.9%; viability, T/C [35]: 32.2%
CN(C)C/C=C/C(=O)Nc1cc2c(Nc3ccc(F)c(Cl)c3)ncnc2cc1O[C@H]1CCOC1 + C=CC(=O)N1CCN(c2nc(=O)n(-c3c(C)ccnc3C(C)C)c3nc(-c4c(O)cccc4F)c(F)cc23)C(C)C1 | > 100 | > 100 | > 100 | > 100 | > 100 | 95.4 | 90.8 | 79.9 | – | – | 101 | 92.6 | 86 | – | 93.7 | 90.8 | 101 | 89.4 | 66.2 | 69.4 | viability, T/C (second compound 0.1 µM, first compound 0.000316 µM): 116%; viability, T/C (second compound 0.1 µM, first compound 0.001 µM): 117%; viability, T/C [1]: 106%; viability, T/C (second compound 0.316 µM, first compound 0.000316 µM): 124%; viability, T/C (second compound 0.316 µM, first compound 0.001 µM): 118%; viability, T/C [7]: 101%; viability, T/C (second compound 1 µM, first compound 0.000316 µM): 130%; viability, T/C (second compound 1 µM, first compound 0.001 µM): 119%; viability, T/C [13]: 117%; viability, T/C [14]: 110%; viability, T/C (second compound 3.16 µM, first compound 0.000316 µM): 114%; viability, T/C (second compound 3.16 µM, first compound 0.001 µM): 117%; viability, T/C [19]: 104%; viability, T/C [20]: 97%; viability, T/C (second compound 10 µM, first compound 0.000316 µM): 89.4%; viability, T/C (second compound 10 µM, first compound 0.001 µM): 95%; viability, T/C [25]: 83.2%; viability, T/C [26]: 78.3%
CC(C)NCC(C(=O)N1CCN(c2ncnc3c2C(C)CC3O)CC1)c1ccc(Cl)cc1 (stereo not given) + C=CC(=O)N1CCN(c2nc(=O)n(-c3c(C)ccnc3C(C)C)c3nc(-c4c(O)cccc4F)c(F)cc23)C(C)C1 | > 10000 | > 10000 | > 10000 | 3780 | 175 | – | 111 | 88 | 80.3 | 77.5 | – | 103 | 93.6 | 74.1 | 105 | 92.9 | 99.9 | 90.2 | 73.5 | 68.8 | viability, T/C [31]: 79.4%; viability, T/C (second compound 0.1 µM, first compound 10 µM): 64.9%; viability, T/C [12]: 80.5%; viability, T/C [32]: 77.9%; viability, T/C (second compound 0.316 µM, first compound 10 µM): 60.8%; viability, T/C [17]: 83.5%; viability, T/C [18]: 79.8%; viability, T/C [33]: 71.8%; viability, T/C (second compound 1 µM, first compound 10 µM): 50.1%; viability, T/C [23]: 77.8%; viability, T/C [24]: 68.3%; viability, T/C [34]: 57.9%; viability, T/C (second compound 3.16 µM, first compound 10 µM): 31.8%; viability, T/C [29]: 30%; viability, T/C [30]: 11.5%; viability, T/C [35]: 18.8%; viability, T/C (second compound 10 µM, first compound 10 µM): 5.87%
